The results in this text go back to US9426996B2, “Use of benzoxaboroles as volatile antimicrobial agents on meats, plants, or plant parts” (AgroFresh Inc., priority 2013, dated 2016).

The experiment concerns Botrytis cinerea. As to the kind of experiment: in vitro inhibition assay for volatile antimicrobial compounds (12-well PDA plates). The class given is cell-based. Particulars: 14 days at 4° C.; for lowest rate with 100% control of Botrytis cinerea: in vitro, volatile. The protocol:
12-Well (7 milliliter (mL volume per well) microtiter plates are used for the in vitro inhibition assay for volatile antimicrobial compounds. A 3-mL volume of full-strength Potato Dextrose Agar (PDA) is added to each well. After cooling, 1 microliter (μL) of 1×10^6 per mL Botrytis cinerea spore suspension is spot pipetted to the center of the agar. For the first experiment, inoculated plates are allowed to germinate for 5 days at 4° C. For the second experiment, plates are inoculated immediately prior to volatile fungicide treatment. Small Whatman #1 filter disks (Cat. No. 1001-0155) are placed, in duplicate, on the underside of a polyethylene PCR plate sealing film.
The acetone is permitted to evaporate for 5 minutes. The headspace around the Botrytis cinerea inoculum is then sealed inside the well by the film with the adhering disk containing the fungicide. Plates are inverted, placed over the treated disks and sealed to prevent any of the chemical from flaking from the disk and falling onto the inoculated agar. After 14 days of storage at 4° C., cultures are evaluated for percent growth relative to control. Regardless of whether the spores had germinated for 5 days, or if the treatment commenced soon after inoculation of the plates (˜15 minutes); there is 100% control of the fungal pathogen down to 0.005 mg.
A total of 14 antimicrobial compounds are tested using the in vitro inhibition assay described in Example 1. All 14 compounds are applied to the Whatman disks, in duplicate, in a dose dependent manner (0.31 to 0.0006 mg/disk). […] Other compounds, such as Compound C, Compound D, and Compound E conferred 100% control down to 0.023, 0.04, and 0.08 mg/disk, respectively. Results of nine compounds are summarized in Table 2, where the other five compounds show no detected activity in the ranges tested. […]

Structures are written as SMILES.

In the case of `Fc1ccc2c(c1)COB2c1ccccc1` [Compound C], the “lowest rate with 100% control of Botrytis cinerea” value (shortened to “lowest rate with 100% control”) amounted to 0.023 mg/disk. Besides, the “Botrytis inhibition % (in vitro)” value (0.0006 mg per disk) came to 0%. Moreover, the “Botrytis inhibition % (in vitro)” value (0.001 mg per disk) was determined as 15%. The “Botrytis inhibition % (in vitro)” value (0.0024 mg per disk) turned out to be 43%. Moreover, the “Botrytis inhibition % (in vitro)” value (0.005 mg per disk) was 63%. For the setting “0.01 mg per disk”, the “Botrytis inhibition % (in vitro)” value is listed as 83%. The “Botrytis inhibition % (in vitro)” value (0.023 mg per disk) turned out to be 100%. For the same compound, the “Botrytis inhibition % (in vitro)” value (0.04 mg per disk) stood at 100%. In addition, the “Botrytis inhibition % (in vitro)” value (0.08 mg per disk) stood at 100%. Besides, the “Botrytis inhibition % (in vitro)” value (0.16 mg per disk) amounted to 100%. In addition, the “Botrytis inhibition % (in vitro)” value (0.31 mg per disk) came to 100%.
Regarding `Fc1ccc2c(c1)COB2c1ccsc1` [Compound D], the “lowest rate with 100% control” value was found to be 0.04 mg/disk. For the same compound, the “Botrytis inhibition % (in vitro)” value (0.0006 mg per disk) came to 0%. Also, the “Botrytis inhibition % (in vitro)” value (0.001 mg per disk) is 0%. The “Botrytis inhibition % (in vitro)” value (0.0024 mg per disk) is listed as 15%. Moreover, under “0.005 mg per disk”, the “Botrytis inhibition % (in vitro)” value amounted to 38%. For the same compound, for the setting “0.01 mg per disk”, the “Botrytis inhibition % (in vitro)” value came out at 70%. The “Botrytis inhibition % (in vitro)” value (0.023 mg per disk) came to 80%. Further, the “Botrytis inhibition % (in vitro)” value (0.04 mg per disk) stood at 100%. Moreover, where the note is “0.08 mg per disk”, the “Botrytis inhibition % (in vitro)” value came to 100%. Further, the “Botrytis inhibition % (in vitro)” value (0.16 mg per disk) stood at 100%. Under “0.31 mg per disk”, the “Botrytis inhibition % (in vitro)” value was 100%.
Consider `Fc1ccc2c(c1)COB2/C=C/c1ccccc1` [Compound E], for which the “lowest rate with 100% control” value was found to be 0.08 mg/disk. Also, under “0.0006 mg per disk”, the “Botrytis inhibition % (in vitro)” value is given as 13%. Moreover, the “Botrytis inhibition % (in vitro)” value (0.001 mg per disk) came to 13%. For the same compound, the “Botrytis inhibition % (in vitro)” value (0.0024 mg per disk) is 28%. The “Botrytis inhibition % (in vitro)” value (0.005 mg per disk) was found to be 38%. Also, under “0.01 mg per disk”, the “Botrytis inhibition % (in vitro)” value is reported as 69%. Also, the “Botrytis inhibition % (in vitro)” value (0.023 mg per disk) is given as 79%. Besides, the “Botrytis inhibition % (in vitro)” value (0.04 mg per disk) amounted to 79%. Also, the “Botrytis inhibition % (in vitro)” value (0.08 mg per disk) is listed as 100%. Besides, the “Botrytis inhibition % (in vitro)” value (0.16 mg per disk) is 100%. Besides, the “Botrytis inhibition % (in vitro)” value (0.31 mg per disk) stood at 100%.
With `FC(F)(F)c1ccc2c(c1)COB2c1ccccc1` [F], the “Botrytis inhibition % (in vitro)” value by setting is: (0.0006 mg per disk) 0%; (0.001 mg per disk) 0%; (0.0024 mg per disk) 0%; (0.005 mg per disk) 8%; (0.01 mg per disk) 8%; (0.023 mg per disk) 10%. Also, the “Botrytis inhibition % (in vitro)” value runs as follows: (0.04 mg per disk) 18%; (0.08 mg per disk) 40%; (0.16 mg per disk) 53%; (0.31 mg per disk) 70%.
Turning to `FC(F)(F)c1ccc2c(c1)COB2c1ccsc1` [G], the “Botrytis inhibition % (in vitro)” value worked out at 0% (0.0006 mg per disk); 0% (0.001 mg per disk); 0% (0.0024 mg per disk); 0% (0.005 mg per disk); 0% (0.01 mg per disk); 3% (0.023 mg per disk). Moreover, the “Botrytis inhibition % (in vitro)” value by setting is: (0.04 mg per disk) 13%; (0.08 mg per disk) 43%; (0.16 mg per disk) 78%; (0.31 mg per disk) 100%.
As for `OB1OCc2cc(C(F)(F)F)ccc21` [H], the “Botrytis inhibition % (in vitro)” value (0.0006 mg per disk) was 0%; the “Botrytis inhibition % (in vitro)” value (0.001 mg per disk) stood at 0%; the “Botrytis inhibition % (in vitro)” value (0.0024 mg per disk) is recorded as 0%; the “Botrytis inhibition % (in vitro)” value (0.005 mg per disk) amounted to 0%; the “Botrytis inhibition % (in vitro)” value (0.01 mg per disk) is 3%; the “Botrytis inhibition % (in vitro)” value (0.023 mg per disk) was 18%. Also, the “Botrytis inhibition % (in vitro)” value is 38% (0.04 mg per disk), 55% (0.08 mg per disk), 80% (0.16 mg per disk) and 85% (0.31 mg per disk).
Regarding `OB1OCCc2ccccc21` [J], the “Botrytis inhibition % (in vitro)” value runs as follows: (0.0006 mg per disk) 0%; (0.001 mg per disk) 0%; (0.0024 mg per disk) 0%; (0.005 mg per disk) 0%; (0.01 mg per disk) 0%; (0.023 mg per disk) 0%. Further, the “Botrytis inhibition % (in vitro)” value is, setting by setting: (0.04 mg per disk) 5%; (0.08 mg per disk) 8%; (0.16 mg per disk) 13%; (0.31 mg per disk) 50%.
For the compound `COc1cccc2c1B(O)OC2` [K], the “Botrytis inhibition % (in vitro)” value is reported as 0% (0.0006 mg per disk); 0% (0.001 mg per disk); 0% (0.0024 mg per disk); 0% (0.005 mg per disk); 0% (0.01 mg per disk); 0% (0.023 mg per disk). In addition, the “Botrytis inhibition % (in vitro)” value amounted to 0% (0.04 mg per disk), 5% (0.08 mg per disk), 29% (0.16 mg per disk) and 48% (0.31 mg per disk).
